# Test results as given in patent US20070077583A1, “Alpha enolase-directed diagnostics and therapeutics for cancer and chemotherapeutic drug resistance” (Aurelium BioPharma, Inc., priority 2005, published 2007).
# Entries after “also recorded” stand apart in the source; their conditions may differ.
# Columns and labels:
# A549 cells = assay: Cell adhesion assay on collagen-coated plates; format: cell-based, human; details: A549 cells vs normal α-enolase levels
# Protocol: Cell adhesion assays were performed using an MTT-based cell assay, as described in FIGS. 8C and 8D. […] The attachment of cells to the surface of the well was counted and a proportion of cells that attached to the surface during the experimental period was determined.
# MCF-7/ADR xenografts = MCF-7/ADR xenografts in nude mice; format: in vivo; details: 3 μg daily for 16 days, with chemotherapeutic drugs
# Protocol: In further studies, the efficacy of a α-enolase-targeted therapeutic in treating an MDR mammary adenocarcinoma cells (MCF/AR) is assessed. Briefly, male […] nude mice 5-7 weeks old, weighing 18 g-22 g are used for the MCF-7/ADR xenografts. Mice receive a subcutaneous (s.c.) injection of the cells using 5×10^5 cells/inoculation under the shoulder. When the s.c. tumor is approximately 5.5 mm in size, mice are randomized into treatment groups of 4 including controls and groups receiving taxol or doxorubicin, alone (4 mg/kg), intraperitoneally (i.p.) every 2 days, α-enolase siRNA alone (3 μg daily for 16 days), or both taxol and α-enolase siRNA (3 μg daily for 16 days for each treatment). […] The animal's weight is measured every 4 days. Tumor growth starting on the first day of treatment is measured and the volume of the xenograft is monitored every 4 days. The mice are anaesthetized and sacrificed when the mean tumor weight is over 1 g in the control group. Tumor tissue is excised from the mice and its weight is measured. […]
# In further studies, the efficacy of a α-enolase-targeted therapeutic in treating an mammary adenocarcinoma cells (MCF-7) is assessed. […] The animal's weight is measured every 4 days. Tumor growth starting on the first day of treatment is measured and the volume of the xenograft is monitored every 4 days. […] Tumor tissue is excised from the mice and its weight is measured. […]
# [1] = tested on: MDA-435 breast cancer cells; assay: BrdU incorporation DNA synthesis, MDA-435; format: cell-based, human; details: MDA-435 cells
# Excerpt: The effect of Eno-1 siRNA silencing on tumor cell growth was even more dramatic in the MDA-435 breast cancer cells, where the viability in cells that were transfected with Eno-1 siRNA dropped to only about 17% of the control level (FIG. 40). In these cells the levels of silencing of α-enolase were also quite high, reaching 14% of the α-enolase levels present in the control transfected cells 6 days post-transfection (FIG. 41).
# MCF-7 cells = assay: Annexin-V apoptosis assay, MCF-7; format: cell-based, human; details: MCF-7 cells vs control siRNA
# Protocol: Apoptotic cells were measured following incubation with siRNAs. This assay was performed to determine the number of cells that were now susceptible to chemotherapeutic drugs. Cells transfected with siRNA were seeded in Lab-Tek 16-well chamber slides (Electron Microscopy Sciences, Hatfield, Pa.) at 10^4 cells/well 48 hrs post-transfection. Apoptosis was determined 16 hours later by annexin-V staining using the Annexin-V FLUOS kit (Roche, Ltd., Basel, CH) following the manufacturer's instructions. Slides were observed under a fluorescence microscope and images were taken using an Olympus digital camera and the Q-Capture software (QImaging, Burnaby, BC, CA).
# [2] = tested on: Detroit skin, Hfl fetal lung, and MRC-5 fetal lung fibroblast cell lines; assay: MTT survival of normal fibroblast cells after α-enolase silencing; format: cell-based; details: relative to mock or control siRNA
# Protocol: Detroit skin, Hfl fetal lung, and MRC-5 fetal lung fibroblast cell lines were treated with α-enolase-targeted siRNA as described in Example 5.
# HUVEC cells = assay: HUVEC capillary tube formation on Matrigel; format: cell-based
# Protocol: Transfected cells were then subjected to an angiogenesis assay to determine the effect of α-enolase on capillary tube formation. Briefly, Matrigel-coated 24-well culture plates (BD Biosciences, Rockville, Md.) were thawed at 4° C. overnight. The Matrigel was allowed to solidify for 1 hr at 37° C. α-enolase-1-directed siRNA or control siRNA silenced HUVEC cells were subsequently seeded onto the Matrigel-coated wells at a density of 40,000 cells per well in the absence of endothelial cell growth factors. Taxol was added to selected wells at 2 nM final concentration. The cells were allowed to differentiate overnight at 37° C., and were photographed after 5-6 and 16 hours using Q-Capture software under an Olympus fluorescence microscope.
# MDA-435 cells = assay: cells; format: cell-based, human
# Protocol: Similar tests utilizing α-enolase siRNA were performed on MDA-435 breast adenocarcinoma cells. Chemosensitivity to various drugs was determined for the MDA-435 cells as described above.
# [3] = tested on: MCF-7 and MDA-231 breast cancer cells; assay: BrdU incorporation cell proliferation assay, MCF-7 and MDA-231; format: cell-based, human; details: MCF-7 and MDA-231 cells
# Protocol: A determinant of cell division and viability, pre-requisites for angiogenesis, was assayed by BrdU incorporation in two breast cancer cell lines.
substance,measurement,setting,value
"α-enolase siRNA: siRNA duplex targeting human α-enolase mRNA; sense 5′-GGCUGUUGAGCACAUCAAUtt-3′ (SEQ ID NO: 1), antisense SEQ ID NO: 2; Ambion (antisense AUUGAUGUGCUCAACAGCC; bought from Ambion, sense has tt overhang, further chemistry not given here)",increase of cell adhesion to collagen-coated plates,A549 cells,40%
same,total cell number in tumors vs control siRNA,MCF-7/ADR xenografts,lower
same,tumor weight vs control siRNA,MCF-7/ADR xenografts,smaller tumors by weight
same,decrease in DNA synthesis,[1],50%
same,Annexin-V positive cells,MCF-7 cells,Annexin-V positive cells were detected; also recorded: substantial amount of Annexin-V-positive cells
same,survival of normal fibroblast cells,[2],no effect on survival
same,capillary tube formation on Matrigel,HUVEC cells,inhibited from forming capillary tubes
same,"cell viability, of the control level",MDA-435 cells,about 17%
same,decrease in cell proliferation rates (BrdU),[3],40-50%
